Each compound was assayed against HIV-1 protease (Human immunodeficiency virus type 1 group M subtype B, UniProt P04585) (assay: Biological assay for inhibition of microbial expressed viral protease (HIV-1 protease)).
Format: biochemical
Description: Insofar as compounds of the invention are able to inhibit the replication of the HIV virus in human T-cells and furthermore, may be delivered orally to mammals, they are of evident clinical utility for the treatment of HIV infection. These tests are predictive of the compounds ability to inhibit HIV protease in vivo. We have measured the inhibition constants of each compound against HIV-1 protease using essentially the method described by M. W. Pennington et al., Peptides 1990, Gimet, E. and D. Andrew, Eds., Escom; Leiden, Netherlands (1990).
Biological Assay for Inhibition of Microbial Expressed Viral Protease
The inhibition constants against HIV-1 protease were measured using the method described by M. V. Toth and G. R. Marshall, Int. J. Peptide protein Res., 1990, 544. The method described M. W. Pennington et al., Peptides 1990, Gimet, E. and D. Andrew, Eds., Escom; Leiden, Netherlands (1990) may also be used. Inhibition is measured as IC50 in μM. The person of skill would accept these tests as predictive of the compounds' utility in vivo to treat HIV infected patients.

Structure (SMILES) | IC50 [µM]
CC(C)(C)OC(=O)NC(Cc1ccccc1)C(O)C1SCCN1S(=O)(=O)c1cccc2cccnc12 (stereo not shown) [EP-001153] | 5 to 20
CC(C)(C)OC(=O)NC(Cc1ccccc1)C(O)C1SCCN1S(=O)(=O)c1ccc(OC(F)(F)F)cc1 (stereo not shown) [EP-001155] | 5 to 20
CC(C)(C)OC(=O)NC(Cc1ccccc1)C(O)C1SCCN1S(=O)(=O)c1ccccc1 (stereo not shown) [EP-001156] | < 5
CC(C)(C)OC(=O)NC(Cc1ccccc1)C(O)C1SCCN1S(=O)(=O)c1ccc([N+](=O)[O-])cc1 (stereo not shown) [EP-001157] | < 5
CC(C)c1ccc(S(=O)(=O)N2CCSC2C(O)C(Cc2ccccc2)NC(=O)OC(C)(C)C)cc1 (stereo not shown) [EP-001159] | 5 to 20
Cc1c(O)cccc1C(=O)NC(Cc1ccccc1)C(O)C1SCCN1S(=O)(=O)c1ccc(F)cc1 (stereo not shown) [EP-001161] | < 5
Cc1cccc(C)c1OCC(=O)NC(Cc1ccccc1)C(O)C1SCCN1S(=O)(=O)c1ccc(F)cc1 (stereo not shown) [EP-001162] | < 5
O=C(COc1ccccc1)NC(Cc1ccccc1)C(O)C1SCCN1S(=O)(=O)c1ccc(F)cc1 (stereo not shown) [EP-001163] | > 20
CC(Oc1ccccc1)C(=O)NC(Cc1ccccc1)C(O)C1SCCN1S(=O)(=O)c1ccc(F)cc1 (stereo not shown) [EP-001164] | > 20
O=C(COc1cccc2ccccc12)NC(Cc1ccccc1)C(O)C1SCCN1S(=O)(=O)c1ccc(F)cc1 (stereo not shown) [EP-001165] | > 20
O=C(COc1ccc2ccccc2c1)NC(Cc1ccccc1)C(O)C1SCCN1S(=O)(=O)c1ccc(F)cc1 (stereo not shown) [EP-001166] | > 20
O=C(NC(Cc1ccccc1)C(O)C1SCCN1S(=O)(=O)c1ccc(F)cc1)OC1CCOC1 (stereo not shown) [EP-001169] | < 5
O=C(Cc1ccccc1)NC(Cc1ccccc1)C(O)C1SCCN1S(=O)(=O)c1ccc(F)cc1 (stereo not shown) [EP-001171] | > 20
CC(C)(C)OC(=O)NC(Cc1ccccc1)C(O)C1SCCN1S(=O)(=O)c1ccc(N)cc1 (stereo not shown) [EP-001172] | < 5
COCCOC(=O)NC(Cc1ccccc1)C(O)C1SCCN1S(=O)(=O)c1ccc(F)cc1 (stereo not shown) [EP-001184] | < 5
Cc1c(O)cccc1C(=O)NC(Cc1ccccc1)C(O)C1SCCN1S(=O)(=O)c1ccc(N)cc1 (stereo not shown) [EP-001195] | < 5

Source: patent US6673821B2, “Nitrogen heterocycle inhibitors of aspartyl protease” (Enanta Pharmaceuticals, Inc., priority 2001, dated 2004)
